Laboratory results as given in patent publication US8252752B2 (priority 2000, dated 2012).
“Also recorded” adds a separate entry of the source.

Tests used:
MPTP-lesioned mice = assay type: in vivo, C57BL/6 mice
Protocol: Experimental mice were lesioned with MPTP (i.e., 40 mg/kg, ip twice, 1 month).
METHODS: Rota-Rod performance measures the length of time each animal manages to maintain its balance on the rotating lucite rod. Prior to MPTP-esioning animals, the performance was conditioned in three training sessions. The general training and testing procedure was as follows: namely,
Animals were placed on a stationary rod for 30 sec to accustom the behavior and establish familiarity with the environment. During this time if an animal fell, it was placed back on the rod; Next, animals were conditioned (or tested) at a constant speed of 5 rpm for 90 sec.;
Any animal that failed a first test was re-tested two more times; Any animal that failed a third test at 5 rpm was removed from the experiment; Thirty-minutes (30 min) after the last 5 rpm trial, each animal was placed back on the rod the speed was increased to 10 rpm; The length of time that each animal was able to maintain balance on the rod was measured at the constant speed of 10 rpm, i.e., data collection.

human DAT = human DAT (Homo sapiens, UniProt Q01959)
Protocol: To obtain differing levels of DAT expression, cells were transiently transfected) with plasmids containing a DAT cDNA insert (hDAT), or alternatively, control irrelevant cDNA insert (Negative Control, NC). After 48-72 hrs. culture, dopamine transport was measured in the transiently transfected hDAT-cells by incubation for 5 hrs. in the presence of ^3H-labeled dopamine (Positive Control, PC).

Nurr1 deficient mice = system: Nurr1 deficient mice
Protocol: Rota rod performance measurements were made on a weekly basis during an 8 week treatment period.
MATERIALS AND METHODS: RotaRod performance measurements (time that balance was maintained on the rod) were performed (as in Study #1), each week during 8 weeks of treatment.

[1] = system: Tyrosine hydroxylase (TH); details: 20 mg/kg for two months vs NaCl
6-OHDA-lesioned rats = system: 6-OHDA-lesioned rats
Description: The nigral dopamine depletion is induced by using unilateral injections of 6-OHDA directly into the nigrostriatal system (AP: −4.4 mm, ML: 1.1 mm, DV: 7.5 mm, AP: −4.0 mm, ML: 0.8 mm, DV: 7.8 mm).
METHODS for STUDY #2: The Rota-Count 8 unit is an eight channel rotational meter. The system utilizes a digital rotary encoder and each encoder is mounted in a small bowl with a cable attachment; thereby, rotations of rats are automatically recorded. 6-OHDA in 0.9% NaCl at a concentration of 0.2% (w/v)-8 μl injected into the nigrostriatum. To control for injection failures in the injections, only 6-OHDA-lesioned rats that rotated more than 5 cycles/min at 7 days post-injection were selected for experimental use.

Chain of human DAT (Q01959 whole entry): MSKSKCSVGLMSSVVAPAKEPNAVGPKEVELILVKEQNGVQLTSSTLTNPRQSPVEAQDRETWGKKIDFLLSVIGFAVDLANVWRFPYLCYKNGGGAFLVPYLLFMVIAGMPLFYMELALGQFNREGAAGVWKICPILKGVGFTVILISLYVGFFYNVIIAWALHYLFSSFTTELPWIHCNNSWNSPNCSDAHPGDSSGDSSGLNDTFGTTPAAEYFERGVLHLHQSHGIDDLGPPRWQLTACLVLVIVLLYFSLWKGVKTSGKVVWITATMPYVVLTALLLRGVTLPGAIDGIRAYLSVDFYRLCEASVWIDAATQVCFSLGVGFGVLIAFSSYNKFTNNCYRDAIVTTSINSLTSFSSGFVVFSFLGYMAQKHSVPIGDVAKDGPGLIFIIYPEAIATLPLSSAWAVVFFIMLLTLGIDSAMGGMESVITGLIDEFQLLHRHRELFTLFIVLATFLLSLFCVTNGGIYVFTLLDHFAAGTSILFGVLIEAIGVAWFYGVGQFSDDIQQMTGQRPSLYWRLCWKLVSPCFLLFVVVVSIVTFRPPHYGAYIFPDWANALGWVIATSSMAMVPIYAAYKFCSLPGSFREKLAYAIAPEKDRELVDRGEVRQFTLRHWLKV

Molecule	reduction of Rota-Rod mean time (MPTP-lesioned mice; after lesioning, 40 mg/kg ip twice)	competition of 3H-dopamine uptake (human DAT; hDAT-transfected cells, 5 hrs. incubation)	transportability at DAT (human DAT; summary of EXAMPLE 12)	stability of Rota Rod performance during treatment (Nurr1 deficient mice; 20 mg/kg twice daily, 8 weeks)	improvement of Rota Rod performance relative to saline treated controls (Nurr1 deficient mice; 20 mg/kg twice daily, within two weeks of treatment)	Rota-Rod time compared with pretreatment performance times (Nurr1 deficient mice; 20 mg/kg, p<0.05)	time to return of Rota-Rod performance to pre-treatment values after cessation of treatment (Nurr1 deficient mice; after 8 weeks of treatment)	Rota-Rod performance after cessation of treatment (washout) (Nurr1 deficient mice; after 8 weeks of treatment, p<0.05)	Rota-Rod performance times relative to NaCl-treated controls (MPTP-lesioned mice; mouse, in vivo)	onset of significant improvement in Rota-rod performance times (MPTP-lesioned mice; mouse, in vivo)	locomotor activity after two months of treatment (MPTP-lesioned mice; mouse, in vivo, ip, 20 mg/kg)	amount of TH per neuron [1]	increase in number of neurons staining positively for TH ([1]; not statistically significant, n=6)	apomorphine-induced rotation (6-OHDA-lesioned rats; 20 mg/kg, 4 weeks, p<0.05)	agonist effects (rotation triggered by the compound itself) (6-OHDA-lesioned rats; 80 mg/kg or 200 mg/kg)
CN1CC=C(c2ccccc2)CC1 [MPTP, 1,2,3,6-methyl-phenyl-tetrahydropyridine, reference compound]	over 65%														
Dopamine gluconamide [Compound #1]		Competition of ^3H-dopamine uptake was observed	transportable at DAT	remained stable during the course of the 8-week treatment study	about 2 fold	significant increase of Rota-Rod time within two weeks of treatment	≤ 2 weeks	degraded significantly within one week	8-9 fold	about the third week of treatment; also recorded: about the second week	recovered locomotor activity	qualitatively much higher	20-30%	significantly decreased apomorphine-induced rotation	did not trigger visible effects
